The target of this test is Recombinant human cathepsin S (CatS) (Homo sapiens, UniProt P25774). As to the kind of experiment: Recombinant human cathepsin S (CatS) inhibition assay, fluorogenic substrate Z-Valine-Valine-Arginine-AMC.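 Note: Baculovirus-expressed CatS in pH 5.0 sodium acetate buffer with DTT and NaCl, fluorescence read each minute over 20 min, inhibition derived from rate slope.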

pIC50: −log10 of the molar value. Where two headings read alike, the source gives them in different places.

Sequence of Recombinant human cathepsin S (CatS) (P25774 115-331): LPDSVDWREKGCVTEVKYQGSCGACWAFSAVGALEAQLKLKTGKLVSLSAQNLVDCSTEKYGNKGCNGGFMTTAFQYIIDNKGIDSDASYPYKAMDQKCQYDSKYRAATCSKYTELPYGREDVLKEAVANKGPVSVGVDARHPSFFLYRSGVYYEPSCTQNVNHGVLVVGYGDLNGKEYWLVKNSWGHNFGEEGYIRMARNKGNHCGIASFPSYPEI

Regarding `NC(=O)C(=O)N1CCc2c(c(-c3ccc(Cl)c(C#Cc4ccc(Cl)c(C(=O)NCC5CNCCO5)c4)c3)nn2CCCN2CCSCC2)C1` (stereo not shown) [Example 580, 5-[(5-{5-[Amino(oxo)acetyl]-1-(3-thiomorpholin-4-ylpropyl)-4,5,6,7-tetrahydro-1H-pyrazolo[4,3-c]pyridin-3-yl}-2-chlorophenyl)ethynyl]-2-chloro-N-(morpholin-2-ylmethyl)benzamide], the pIC50 – broadly, the negative decadic logarithm of the IC50, by convention in mol/L – was 7.52.
`O=C(N1CCc2c(c(-c3ccc(Cl)c(C#Cc4ccc(Cl)cc4)c3)nn2CCCN2CCOCC2)C1)C(F)(F)F` [Example 139, 1-[3-[4-Chloro-3-(4-chloro-phenylethynyl)-phenyl]-1-(3-morpholin-4-yl-propyl)-1,4,6,7-tetrahydro-pyrazolo[4,3-c]pyridin-5-yl]-2,2,2-trifluoro-ethanone]: where the note is “CatS IC50, Table 2, average of results obtained”, the pIC50 is 6.64.
As for `O=C(N1CCOCC1)N1CCc2c(c(-c3ccc(Cl)c(C#Cc4ccc(CNCc5ccc(Cl)cc5)cc4)c3)nn2CCCN2CCOCC2)C1` [Example 497, 1-[4-({2-Chloro-5-[5-(morpholin-4-ylcarbonyl)-1-(3-morpholin-4-ylpropyl)-4,5,6,7-tetrahydro-1H-pyrazolo[4,3-c]pyridin-3-yl]phenyl}ethynyl)phenyl]-N-[(4-chlorophenyl)methyl]methanamine], the pIC50 was 5.79.
For `NC(=O)N1CCc2c(c(-c3ccc(Cl)c(C#Cc4ccc(CNCc5ccc(Cl)cc5)cc4)c3)nn2C[C@H](O)CN2CCSCC2)C1` [Example 252, (R)-3-(4-Chloro-3-{4-[(4-chloro-benzylamino)-methyl]-phenylethynyl}-phenyl)-1-(2-hydroxy-3-thiomorpholin-4-yl-propyl)-1,4,6,7-tetrahydro-pyrazolo[4,3-c]pyridine-5-carboxylic acid amide], under “CatS IC50”, the pIC50 is 6.96.
Still for that read-out and setting: as for `NC(=O)C(=O)N1CCc2c(c(-c3ccc(Cl)c(C#Cc4ccc(Cl)c(C(=O)N5CCCC5)c4)c3)nn2CCCN2CCSCC2)C1` [Example 567, 2-[3-(4-Chloro-3-{[4-chloro-3-(pyrrolidin-1-ylcarbonyl)phenyl]ethynyl}phenyl)-1-(3-thiomorpholin-4-ylpropyl)-1,4,6,7-tetrahydro-5H-pyrazolo[4,3-c]pyridin-5-yl]-2-oxoacetamide], the figure is 6.80.
For `NC(=O)C(=O)N1CCc2c(c(-c3ccc(Cl)c(C#Cc4ccc5c(c4)CN(Cc4ccc(Cl)cc4)CC5)c3)nn2CCCN2CCOCC2)C1` [Example 159, 2-{3-[4-Chloro-3-({2-[(4-chlorophenyl)methyl]-1,2,3,4-tetrahydroisoquinolin-7-yl}ethynyl)phenyl]-1-(3-morpholin-4-ylpropyl)-1,4,6,7-tetrahydro-5H-pyrazolo[4,3-c]pyridin-5-yl}-2-oxoacetamide], the pIC50 is 7.22.
The same measure, in the same setting: the result for `CS(=O)(=O)N1CCc2c(c(-c3ccc(Cl)c(C#Cc4ccccn4)c3)nn2CCCN2CCOCC2)C1` [Example 22, 3-(4-Chloro-3-pyridin-2-ylethynyl-phenyl)-5-methanesulfonyl-1-(3-morpholin-4-yl-propyl)-4,5,6,7-tetrahydro-1H-pyrazolo[4,3-c]pyridine] reads 5.73; that for `NC(=O)C(=O)N1CCc2c(c(-c3ccc(Cl)c(C#Cc4ccc(Cl)c(C(=O)NC[C@@H]5CCNC5)c4)c3)nn2CCCN2CCSCC2)C1` [Example 578, 5-[(5-{5-[Amino(oxo)acetyl]-1-(3-thiomorpholin-4-ylpropyl)-4,5,6,7-tetrahydro-1H-pyrazolo[4,3-c]pyridin-3-yl}-2-chlorophenyl)ethynyl]-2-chloro-N-[(3R)-pyrrolidin-3-ylmethyl]benzamide], 7.70; that for `CS(=O)(=O)N1CCc2c(c(-c3ccc(Cl)c(C#Cc4ccc(Oc5ccccc5)cc4)c3)nn2CCCN2CCOCC2)C1` [Example 17, 3-[4-Chloro-3-(4-phenoxy-phenylethynyl)-phenyl]-5-methanesulfonyl-1-(3-morpholin-4-yl-propyl)-4,5,6,7-tetrahydro-1H-pyrazolo[4,3-c]pyridine], 5.72.
On to `CS(=O)(=O)N1CCc2c(c(-c3ccc(Cl)c(C#Cc4ccc(CNC5CC5)cc4)c3)nn2CCCN2CCOCC2)C1` [Example 323, N-{[4-({2-Chloro-5-[5-(methylsulfonyl)-1-(3-morpholin-4-ylpropyl)-4,5,6,7-tetrahydro-1H-pyrazolo[4,3-c]pyridin-3-yl]phenyl}ethynyl)phenyl]methyl}cyclopropanamine], for which the pIC50 (CatS IC50) was 6.12.
As for `C[C@H]1COCCN1CCCn1nc(-c2ccc(Cl)c(C#Cc3ccc4c(c3)CN(C(=O)OC(C)(C)C)CC4)c2)c2c1CCN(S(C)(=O)=O)C2` [Example 467, 1,1-Dimethylethyl 7-({2-chloro-5-[1-{3-[(3S)-3-methylmorpholin-4-yl]propyl}-5-(methylsulfonyl)-4,5,6,7-tetrahydro-1H-pyrazolo[4,3-c]pyridin-3-yl]phenyl}ethynyl)-3,4-dihydroisoquinoline-2(1H)-carboxylate], the pIC50 (CatS IC50) is 6.59.
As to `CS(=O)(=O)N1CCc2c(c(-c3ccc(Cl)c(C#Cc4ccc5c(c4)CC(CO)NC5)c3)nn2CCCN2CCOCC2)C1` (stereo not shown) [Example 206, [6-({2-Chloro-5-[5-(methylsulfonyl)-1-(3-morpholin-4-ylpropyl)-4,5,6,7-tetrahydro-1H-pyrazolo[4,3-c]pyridin-3-yl]phenyl}ethynyl)-1,2,3,4-tetrahydroisoquinolin-3-yl]methanol], the pIC50 is 6.68.
As to `CS(=O)(=O)N1CCc2c(c(-c3ccc(Cl)c(C#Cc4ccc(Cl)c(CNCc5ccccc5)c4)c3)nn2CCCN2CCOCC2)C1` [Example 287, 1-[2-Chloro-5-({2-chloro-5-[5-(methylsulfonyl)-1-(3-morpholin-4-ylpropyl)-4,5,6,7-tetrahydro-1H-pyrazolo[4,3-c]pyridin-3-yl]phenyl}ethynyl)phenyl]-N-(phenylmethyl)methanamine], under “CatS IC50”, the pIC50 is 7.30.
On to `CC(C)(C)OC(=O)N1CCN(CCCn2nc(-c3ccc(Cl)c(C#Cc4ccc(CNCc5ccc(Cl)cc5)cc4)c3)c3c2CCN(S(C)(=O)=O)C3)CC1` [Example 367, 1,1-Dimethylethyl 4-{3-[3-(4-chloro-3-{[4-({[(4-chlorophenyl)methyl]amino}methyl)phenyl]ethynyl}phenyl)-5-(methylsulfonyl)-4,5,6,7-tetrahydro-1H-pyrazolo[4,3-c]pyridin-1-yl]propyl}piperazine-1-carboxylate], for which the pIC50 (CatS IC50) is 7.05.
As for `CS(=O)(=O)N1CCc2c(c(-c3ccc(Cl)c(C#Cc4ccc5c(c4)CCN(C4CC4)C5)c3)nn2CCCN2CCOCC2)C1` [Example 284, 6-({2-Chloro-5-[5-(methylsulfonyl)-1-(3-morpholin-4-ylpropyl)-4,5,6,7-tetrahydro-1H-pyrazolo[4,3-c]pyridin-3-yl]phenyl}ethynyl)-2-cyclopropyl-1,2,3,4-tetrahydroisoquinoline], the pIC50 (CatS IC50) was 6.70.
Turning to `CS(=O)(=O)N1CCc2c(c(-c3ccc(C(F)(F)F)c(C#CCNS(=O)(=O)c4ccccc4)c3)nn2CC(O)CN2CCOCC2)C1` (stereo not shown) [Example 305, N-(3-{5-[1-(2-Hydroxy-3-morpholin-4-ylpropyl)-5-(methylsulfonyl)-4,5,6,7-tetrahydro-1H-pyrazolo[4,3-c]pyridin-3-yl]-2-(trifluoromethyl)phenyl}prop-2-yn-1-yl)benzenesulfonamide], the pIC50 is 5.40.

These data come from US20080200454A1, “CARBON-LINKED TETRAHYDRO-PYRAZOLO-PYRIDINE MODULATORS OF CATHEPSIN S” (priority 2007, published 2008).
